Publication PMC11845477, “Exploring the principles behind antibiotics with limited resistance” (Nature Communications, 2025)

Key:
[1] = tested on: K. pneumoniae ATCC 10031 (SEN) and K. pneumoniae ATCC 700603 (MDR); experiment: Adaptive laboratory evolution (ALE), relative MIC of evolved lines; assay type: cell-based, Klebsiella pneumoniae
Summary of the method: (§1)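 Ten parallel populations per antibiotic–ancestor pair were evolved in MHB at 37 °C, starting near 50% growth-inhibiting drug. Every 72 h they were passaged into 0.5–2.5× increasing concentrations, keeping the highest-drug well with OD600 > 0.2.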

[2] = tested on: E. coli ATCC 25922 (SEN) and E. coli NCTC13846 (MDR); experiment: as above; assay type: cell-based, Escherichia coli
Summary of the method: as §1

[3] = KP-SEN (Klebsiella pneumoniae ATCC 10031), evolved line 1
[4] = KP-SEN (Klebsiella pneumoniae ATCC 10031), evolved line 4
[5] = KP-SEN (Klebsiella pneumoniae ATCC 10031), evolved line 8
[6] = KP-SEN (Klebsiella pneumoniae ATCC 10031), evolved line 9
[7] = KP-SEN, Klebsiella pneumoniae ATCC 10031, evolved line 5
[8] = EC-SEN (Escherichia coli ATCC 25922), evolved line 3
[9] = EC-SEN (Escherichia coli ATCC 25922), evolved line 4
[10] = EC-SEN (Escherichia coli ATCC 25922), evolved line 5
[11] = EC-SEN (Escherichia coli ATCC 25922), evolved line 7
[12] = EC-SEN (Escherichia coli ATCC 25922), evolved line 10

CC(C)c1ccc(Cn2ccc3c4c(N)nc(NC5CC5)nc4ccc32)cc1 [SCH79797]
8: Relative MIC ([1]; ALE, Klebsiella pneumoniae ATCC 10031 (KP-SEN), evolved line 8) | Relative MIC ([1]; ALE, Klebsiella pneumoniae ATCC 10031 (KP-SEN), evolved line 9) | Relative MIC ([1]; KP-SEN (K. pneumoniae ATCC 10031), evolved line 8 vs ancestor) | Relative MIC ([1]; KP-SEN (K. pneumoniae ATCC 10031), evolved line 9 vs ancestor) | Relative MIC [1, 5] | Relative MIC [1, 6] | Relative MIC ([1]; Klebsiella pneumoniae ATCC 10031 (KP-SEN), evolved line 8) | Relative MIC ([1]; Klebsiella pneumoniae ATCC 10031 (KP-SEN), evolved line 9)
64 µg/mL: MIC of evolved line ([1]; KP-SEN (K. pneumoniae ATCC 10031), evolved line 1 of the given antibiotic) | MIC of evolved line ([1]; KP-SEN (K. pneumoniae ATCC 10031), evolved line 4 of the given antibiotic)
4: Relative MIC ([1]; ALE, Klebsiella pneumoniae ATCC 10031 (KP-SEN), evolved line 2) | Relative MIC ([1]; ALE, Klebsiella pneumoniae ATCC 10031 (KP-SEN), evolved line 7) | Relative MIC ([1]; KP-SEN (K. pneumoniae ATCC 10031), evolved line 2 vs ancestor) | Relative MIC ([1]; KP-SEN (K. pneumoniae ATCC 10031), evolved line 7 vs ancestor) | Relative MIC ([1]; KP-SEN (Klebsiella pneumoniae ATCC 10031), evolved line 2) | Relative MIC ([1]; KP-SEN, Klebsiella pneumoniae ATCC 10031, evolved line 7) | Relative MIC ([1]; Klebsiella pneumoniae ATCC 10031 (KP-SEN), evolved line 2) | Relative MIC ([1]; Klebsiella pneumoniae ATCC 10031 (KP-SEN), evolved line 7) | Relative MIC ([2]; ALE, Escherichia coli ATCC 25922 (EC-SEN), evolved line 1) | Relative MIC ([2]; ALE, Escherichia coli ATCC 25922 (EC-SEN), evolved line 2) | Relative MIC ([2]; ALE, Escherichia coli ATCC 25922 (EC-SEN), evolved line 3) | Relative MIC ([2]; ALE, Escherichia coli ATCC 25922 (EC-SEN), evolved line 4) | Relative MIC ([2]; ALE, Escherichia coli ATCC 25922 (EC-SEN), evolved line 5) | Relative MIC ([2]; ALE, Escherichia coli ATCC 25922 (EC-SEN), evolved line 7) | Relative MIC ([2]; ALE, Escherichia coli ATCC 25922 (EC-SEN), evolved line 10) | Relative MIC ([2]; EC-SEN (E. coli ATCC 25922), evolved line 1 vs ancestor) | Relative MIC ([2]; EC-SEN (E. coli ATCC 25922), evolved line 2 vs ancestor) | Relative MIC ([2]; EC-SEN (E. coli ATCC 25922), evolved line 3 vs ancestor) | Relative MIC ([2]; EC-SEN (E. coli ATCC 25922), evolved line 4 vs ancestor) | Relative MIC ([2]; EC-SEN (E. coli ATCC 25922), evolved line 5 vs ancestor) | Relative MIC ([2]; EC-SEN (E. coli ATCC 25922), evolved line 7 vs ancestor) | Relative MIC ([2]; EC-SEN (E. coli ATCC 25922), evolved line 10 vs ancestor) | Relative MIC [2, 8] | Relative MIC [2, 9] | Relative MIC [2, 10] | Relative MIC [2, 11] | Relative MIC [2, 12] | Relative MIC ([2]; EC-SEN, Escherichia coli ATCC 25922, evolved line 1) | Relative MIC ([2]; EC-SEN, Escherichia coli ATCC 25922, evolved line 2) | Relative MIC ([2]; Escherichia coli ATCC 25922 (EC-SEN), evolved line 1) | Relative MIC ([2]; Escherichia coli ATCC 25922 (EC-SEN), evolved line 2) | Relative MIC ([2]; Escherichia coli ATCC 25922 (EC-SEN), evolved line 3) | Relative MIC ([2]; Escherichia coli ATCC 25922 (EC-SEN), evolved line 4) | Relative MIC ([2]; Escherichia coli ATCC 25922 (EC-SEN), evolved line 5) | Relative MIC ([2]; Escherichia coli ATCC 25922 (EC-SEN), evolved line 7) | Relative MIC ([2]; Escherichia coli ATCC 25922 (EC-SEN), evolved line 10)
2: Relative MIC ([1]; ALE, Klebsiella pneumoniae ATCC 10031 (KP-SEN), evolved line 3) | Relative MIC ([1]; ALE, Klebsiella pneumoniae ATCC 10031 (KP-SEN), evolved line 6) | Relative MIC ([1]; ALE, Klebsiella pneumoniae ATCC 10031 (KP-SEN), evolved line 10) | Relative MIC ([1]; KP-SEN (K. pneumoniae ATCC 10031), evolved line 3 vs ancestor) | Relative MIC ([1]; KP-SEN (K. pneumoniae ATCC 10031), evolved line 6 vs ancestor) | Relative MIC ([1]; KP-SEN (K. pneumoniae ATCC 10031), evolved line 10 vs ancestor) | Relative MIC ([1]; KP-SEN (Klebsiella pneumoniae ATCC 10031), evolved line 3) | Relative MIC ([1]; KP-SEN (Klebsiella pneumoniae ATCC 10031), evolved line 6) | Relative MIC ([1]; KP-SEN (Klebsiella pneumoniae ATCC 10031), evolved line 10) | Relative MIC ([1]; Klebsiella pneumoniae ATCC 10031 (KP-SEN), evolved line 3) | Relative MIC ([1]; Klebsiella pneumoniae ATCC 10031 (KP-SEN), evolved line 6) | Relative MIC ([1]; Klebsiella pneumoniae ATCC 10031 (KP-SEN), evolved line 10) | Relative MIC ([2]; ALE, Escherichia coli ATCC 25922 (EC-SEN), evolved line 8) | Relative MIC ([2]; ALE, Escherichia coli ATCC 25922 (EC-SEN), evolved line 9) | Relative MIC ([2]; EC-SEN (E. coli ATCC 25922), evolved line 8 vs ancestor) | Relative MIC ([2]; EC-SEN (E. coli ATCC 25922), evolved line 9 vs ancestor) | Relative MIC ([2]; EC-SEN (Escherichia coli ATCC 25922), evolved line 8) | Relative MIC ([2]; EC-SEN (Escherichia coli ATCC 25922), evolved line 9) | Relative MIC ([2]; Escherichia coli ATCC 25922 (EC-SEN), evolved line 8) | Relative MIC ([2]; Escherichia coli ATCC 25922 (EC-SEN), evolved line 9)
1.505 log10: Relative MIC (log10) [1, 7]
0.9031 log10: Relative MIC (log10) [1, 5] | Relative MIC (log10) [1, 6]
16 µg/mL: MIC of evolved line ([1]; KP-SEN (K. pneumoniae ATCC 10031), evolved line 2 of the given antibiotic) | MIC of evolved line ([1]; KP-SEN (K. pneumoniae ATCC 10031), evolved line 7 of the given antibiotic) | MIC of evolved line ([2]; EC-SEN (E. coli ATCC 25922), evolved line 1 of the given antibiotic) | MIC of evolved line ([2]; EC-SEN (E. coli ATCC 25922), evolved line 2 of the given antibiotic) | MIC of evolved line ([2]; EC-SEN (E. coli ATCC 25922), evolved line 3 of the given antibiotic) | MIC of evolved line ([2]; EC-SEN (E. coli ATCC 25922), evolved line 4 of the given antibiotic) | MIC of evolved line ([2]; EC-SEN (E. coli ATCC 25922), evolved line 5 of the given antibiotic) | MIC of evolved line ([2]; EC-SEN (E. coli ATCC 25922), evolved line 7 of the given antibiotic) | MIC of evolved line ([2]; EC-SEN (E. coli ATCC 25922), evolved line 10 of the given antibiotic)
16: Relative MIC ([1]; ALE, Klebsiella pneumoniae ATCC 10031 (KP-SEN), evolved line 1) | Relative MIC ([1]; ALE, Klebsiella pneumoniae ATCC 10031 (KP-SEN), evolved line 4) | Relative MIC ([1]; KP-SEN (K. pneumoniae ATCC 10031), evolved line 1 vs ancestor) | Relative MIC ([1]; KP-SEN (K. pneumoniae ATCC 10031), evolved line 4 vs ancestor) | Relative MIC [1, 3] | Relative MIC [1, 4] | Relative MIC ([1]; Klebsiella pneumoniae ATCC 10031 (KP-SEN), evolved line 1) | Relative MIC ([1]; Klebsiella pneumoniae ATCC 10031 (KP-SEN), evolved line 4)
0.6021 log10: Relative MIC (log10) [2, 8] | Relative MIC (log10) [2, 9] | Relative MIC (log10) [2, 10] | Relative MIC (log10) [2, 11] | Relative MIC (log10) [2, 12]
1.204 log10: Relative MIC (log10) [1, 3] | Relative MIC (log10) [1, 4]
128 µg/mL: MIC of evolved line ([1]; KP-SEN (K. pneumoniae ATCC 10031), evolved line 5 of the given antibiotic)
8 µg/mL: MIC of evolved line ([1]; KP-SEN (K. pneumoniae ATCC 10031), evolved line 3 of the given antibiotic) | MIC of evolved line ([1]; KP-SEN (K. pneumoniae ATCC 10031), evolved line 6 of the given antibiotic) | MIC of evolved line ([1]; KP-SEN (K. pneumoniae ATCC 10031), evolved line 10 of the given antibiotic) | MIC of evolved line ([2]; EC-SEN (E. coli ATCC 25922), evolved line 8 of the given antibiotic) | MIC of evolved line ([2]; EC-SEN (E. coli ATCC 25922), evolved line 9 of the given antibiotic)
32 µg/mL: MIC of evolved line ([1]; KP-SEN (K. pneumoniae ATCC 10031), evolved line 8 of the given antibiotic) | MIC of evolved line ([1]; KP-SEN (K. pneumoniae ATCC 10031), evolved line 9 of the given antibiotic)
32: Relative MIC ([1]; ALE, Klebsiella pneumoniae ATCC 10031 (KP-SEN), evolved line 5) | Relative MIC ([1]; KP-SEN (K. pneumoniae ATCC 10031), evolved line 5 vs ancestor) | Relative MIC [1, 7] | Relative MIC ([1]; Klebsiella pneumoniae ATCC 10031 (KP-SEN), evolved line 5)
